{"source": "patent US20220118116A1", "about": "“ADHESIVE/ADSORPTION SWITCH ON NANOPARTICLES TO INCREASE TUMOR UPTAKE AND DELAY TUMOR CLEARANCE” (The Johns Hopkins University, priority 2019, published 2022)", "key": {"[1]": {"details": "Leite et al., 2012; cited from earlier work"}, "MDA-MB-231 (PRI3)": {"test_system": "MDA-MB-231 (PRI3)", "assay": "IC50 on cell monolayers (MTT assay)", "type": "cell-based, human", "details": "6-hour incubation, read-out: IC50 of free cisplatin", "description": "(§1) To determine the IC50 of liposomal cisplatin and of free cisplatin, 20,000 cells per well were plated in 96-well plates. A range of concentrations of sterilized liposomes (containing or not cisplatin) or of free cisplatin was added to the wells mixed in media (with 10% FBS) at pH 7.4 and pH 6.5. Upon completion of a 6-hour incubation, cells were washed twice with PBS, and 10% FBS-supplemented fresh media was then added to wells. After two doubling times an MTT assay (Promega, Madison, Wis.) was used (following the vendor's instructions) to evaluate percent cell viability. Absorbance was read at 570 nm.\nas §1, with “sterile” for “sterilized”, “6 hour” for “6-hour”"}, "MDA-MB-231 (ALN2)": {"test_system": "MDA-MB-231 (ALN2)", "assay": "IC50 on cell monolayers (MTT assay)", "type": "cell-based, human", "details": "6-hour incubation, read-out: IC50 of free cisplatin", "description": "as §1\nas §1, with “sterile” for “sterilized”, “6 hour” for “6-hour”"}, "MDA-MB-231 (ATCC)": {"test_system": "MDA-MB-231 (ATCC)", "assay": "IC50 on cell monolayers (MTT assay)", "type": "cell-based, human", "details": "6-hour incubation, read-out: IC50 of free cisplatin", "description": "as §1\nas §1, with “sterile” for “sterilized”, “6 hour” for “6-hour”"}, "MDA-MB-231 (LUNG1)": {"test_system": "MDA-MB-231 (LUNG1)", "assay": "IC50 on cell monolayers (MTT assay)", "type": "cell-based, human", "details": "6-hour incubation, read-out: IC50 of free cisplatin", "description": "as §1\nas §1, with “sterile” for “sterilized”, “6 hour” for “6-hour”"}, "MDA-MB-436 (ATCC)": {"test_system": "MDA-MB-436 (ATCC)", "assay": "IC50 on cell monolayers (MTT assay)", "type": "cell-based, human", "details": "6-hour incubation, read-out: IC50 of free cisplatin", "description": "as §1\nas §1, with “sterile” for “sterilized”, “6 hour” for “6-hour”"}, "[2]": {"test_system": "spontaneous MDA-MB-231 axillary lymph node (ALN) metastases", "assay": "Growth control of spontaneous TNBC metastases in vivo (cisplatin)", "details": "7.5 mg/Kg i.v., three times in five-day intervals"}}, "note": "Read-outs that look alike come from different tables or passages of the source."}
{"smiles": "N.N.[Cl][Pt][Cl]", "note": "[free cisplatin, cis-diamminedichloroplatinum (II)]", "values": [{"measurement": "reported MTD", "setting": "[1]", "result": 7.5, "unit": "mg/kg"}, {"measurement": "IC50", "setting": "MDA-MB-231 (PRI3); pH 6.5", "result": "37.7 ± 13.4", "unit": "µM"}, {"measurement": "IC50", "setting": "MDA-MB-231 (PRI3); pH 7.4", "result": "32.4 ± 7.8", "unit": "µM"}, {"measurement": "IC50", "setting": "MDA-MB-231 (ALN2); pH 6.5", "result": "40.2 ± 7.4", "unit": "µM"}, {"measurement": "IC50", "setting": "MDA-MB-231 (ALN2); pH 7.4", "result": "39.2 ± 5.9", "unit": "µM"}, {"measurement": "IC50", "setting": "MDA-MB-231 (ATCC); pH 6.5", "result": "47.7 ± 4.4", "unit": "µM"}, {"measurement": "IC50", "setting": "MDA-MB-231 (ATCC); pH 7.4", "result": "45.2 ± 8.2", "unit": "µM"}, {"measurement": "IC50", "setting": "MDA-MB-231 (LUNG1); pH 6.5", "result": "42.6 ± 6.2", "unit": "µM"}, {"measurement": "IC50", "setting": "MDA-MB-231 (LUNG1); pH 7.4", "result": "40.2 ± 6.4", "unit": "µM"}, {"measurement": "IC50", "setting": "MDA-MB-436 (ATCC); pH 6.5", "result": "3.2 ± 0.73", "unit": "µM"}, {"measurement": "IC50", "setting": "MDA-MB-436 (ATCC); pH 7.4", "result": "2.46 ± 0.9", "unit": "µM"}, {"measurement": "animal survival", "setting": "[2]", "result": "shortest animal survival"}, {"measurement": "animals euthanized because of weight loss", "setting": "[2]", "result": 100, "unit": "%"}]}
